Data as given in the NIST ThermoML archive (doi:10.1016/j.jct.2014.06.004).

Assay: xn = mol fraction of the nth substance listed
Conditions: 100 kPa, Liquid; for speed of sound: Frequency=3 MHz, Sing-around technique in a fixed-path interferometer; for mass density: Vibrating tube method

CCCCCCC(=O)O [heptanoic acid] + CCCC(=O)O
Conditions | mass density, 293.15 K [kg/m3] | mass density, 298.15 K [kg/m3] | mass density, 303.15 K [kg/m3] | mass density, 308.15 K [kg/m3] | speed of sound, 293.15 K [m/s] | speed of sound, 298.15 K [m/s] | speed of sound, 303.15 K [m/s] | speed of sound, 308.15 K [m/s]
x1 = 0.0559 | 954.2 | 949.3 | 944.4 | 939.5 | 1203 | 1185 | 1166 | 1147
x1 = 0.1059 | 951.3 | 946.4 | 941.6 | 936.7 | 1209 | 1191 | 1172 | 1154
x1 = 0.2061 | 945.8 | 941 | 936.3 | 931.5 | 1222 | 1203 | 1185 | 1167
x1 = 0.3087 | 940.8 | 936.2 | 931.5 | 926.9 | 1233 | 1215 | 1197 | 1179
x1 = 0.4037 | 936.7 | 932.1 | 927.6 | 923 | 1244 | 1225 | 1207 | 1189
x1 = 0.5037 | 932.7 | 928.2 | 923.8 | 919.3 | 1254 | 1236 | 1217 | 1199
x1 = 0.6006 | 929.2 | 924.8 | 920.4 | – | 1263 | 1245 | 1227 | 1209
x1 = 0.7049 | 925.8 | 921.5 | 917.1 | – | 1272 | 1254 | 1236 | 1218
x1 = 0.805 | 922.8 | 918.5 | 914.2 | – | 1280 | 1263 | 1245 | 1227
x1 = 0.9052 | 920.1 | 915.9 | 911.6 | – | 1289 | 1271 | 1253 | 1235
x1 = 0.9575 | 918.7 | 914.5 | 910.3 | – | 1292 | 1275 | 1257 | 1239
x1 = 1 | 917.7 | 913.5 | 909.3 | – | 1295 | 1278 | 1260 | 1242
